Biological target: luciferase (Photinus pyralis, UniProt P08659)
Test: ATP-luciferin-luciferase assay (light intensity, luminometer)
Assay type: biochemical, firefly
Settings: for effect on light intensity: diluted concentrations compared with the positively charged extractant, 5; for neutralizing the inhibitory effect(s) of commonly employed extractants on the ATP-luciferin-luciferase light reaction: overall conclusion, SDS at the proper concentrations
Procedure: ATP-luciferin-luciferase assays were conducted to determine the effect of the following on assay activity: (1) Tween® 20 (2% Tween® 20 in 50 mM tricene buffer, pH 6.75), (2) MgSO4 (0.229 g/L in 50 mM tricene buffer, pH 7.46), (3) SDS (0.268 g/L in 50 mM tricene buffer, pH 7.61) and (4) a combination of MgSO4 and various amounts of Tween®. Each of these substances were assayed alone and in the presence of a commonly used positively charged ATP extractant, i.e., benzalkonium chloride (0.3325 g/L). Many of the assays were conducted in the presence of the following sanitizers: Ster-Bac® (1 oz/4 gal); Ster-Bac® (2.5 ml/L); XY-12 (200 ppm); XY-12 (600 ppm); Simplex Quat (1 oz/gal); Kleer-Mor® (1 oz/2 gal); and Kleer-Mor® (4 oz/2 gal). The MgSO4 and SDS assays were conducted using molar concentrations of MgSO4 and SDS equal to that of the positively charged extractant, as well as using molar concentrations of MgSO4 and SDS diluted as compared to that of the positively charged extractant.
Depending on the substance being tested, sanitizer, neutralizer (i.e., Tween® 20, MgSO4 or SDS), ATP solution, luciferin/luciferase cocktail, extractant and/or benzalkonium chloride (in various combinations) were placed in a cuvette and light intensity was read. Each sanitizer was run in duplicate. A control tube containing buffer and ATP was also run. Light output was measured in a Monolight 3010 luminometer. Each experiment was conducted in total volume of 0.42 ml in the curvette.

Sequence of luciferase (P08659 whole entry, species assumed): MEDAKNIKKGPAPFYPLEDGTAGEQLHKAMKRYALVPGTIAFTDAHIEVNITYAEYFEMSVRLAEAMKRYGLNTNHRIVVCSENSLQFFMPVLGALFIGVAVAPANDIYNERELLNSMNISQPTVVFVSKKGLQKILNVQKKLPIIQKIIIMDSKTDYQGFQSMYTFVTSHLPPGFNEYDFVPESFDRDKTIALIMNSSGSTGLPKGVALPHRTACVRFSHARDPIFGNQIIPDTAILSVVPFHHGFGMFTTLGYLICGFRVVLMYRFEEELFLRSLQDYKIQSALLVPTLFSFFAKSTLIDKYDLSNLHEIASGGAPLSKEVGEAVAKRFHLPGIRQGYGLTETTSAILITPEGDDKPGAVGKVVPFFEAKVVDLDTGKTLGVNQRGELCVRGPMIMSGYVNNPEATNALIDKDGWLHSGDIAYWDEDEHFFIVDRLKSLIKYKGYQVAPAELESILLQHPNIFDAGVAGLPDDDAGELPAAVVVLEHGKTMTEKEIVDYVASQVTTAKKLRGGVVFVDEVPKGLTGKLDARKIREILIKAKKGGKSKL

| Structure (SMILES) | effect on light intensity (FIGS. 4A-4C) | performance as neutralizer compared with SDS (intensity of light) (equal concentrations of neutralizer and extractant, with sanitizer, with extractant and alone, FIG. 3) | performance as neutralizer compared with Tween 20 (intensity of light) (equal concentrations of neutralizer and positively charged extractant (benzalkonium chloride), various sanitizers, FIGS. 1 and 2) | neutralizing the effects of sanitizer (extractant, sanitizer and ATP-luciferin-luciferase solution, FIGS. 6A, 6B) | neutralizing the inhibitory effect(s) of commonly employed extractants on the ATP-luciferin-luciferase light reaction | neutralizing the inhibitory effects of benzalkonium chloride (diluted 1:2 or more compared with the extractant, FIGS. 4A-4C) | effect on the light reaction (equal concentrations of neutralizer and positively charged extractant, FIG. 3) | effect on the light reaction at too high a concentration (present at too high a concentration) |
| --- | --- | --- | --- | --- | --- | --- | --- | --- |
| O=S(=O)([O-])[O-].[Mg+2] [MgSO4, magnesium sulfate] | increased light intensity over the undiluted MgSO4 | performed better than SDS in all assays | performed better than Tween® 20 as a neutralizer for all sanitizers except one | works at least as well and, in most cases, better than Tween® 20 | more effective than Tween® 20 |  |  |  |
| CCCCCCCCCCCCOS(=O)(=O)[O-].[Na+] [SDS, sodium dodecyl sulfate] | did not affect (inhibit) light intensity |  |  |  | neutralizes the inhibitory effect(s) | effective in neutralizing the inhibitory effects of benzalkonium chloride | not effective and inhibited the light reaction | completely eliminate the light reaction |

Reference: patent US20050181467A1, “ATP extraction method” (priority 2000, published 2005)
